In article PMC5365645, “Preclinical Pharmacokinetics and Pharmacodynamic Target of SCY-078, a First-in-Class Orally Active Antifungal Glucan Synthesis Inhibitor, in Murine Models of Disseminated Candidiasis” (Antimicrobial Agents and Chemotherapy, 2017):
In brackets after ≈: the same amount, converted by molar mass. Several values for one entry are separate records, joined by “and”; a condition that tells them apart may be missing. Equal entries are not always repeated. Where two headings read alike, the source gives them in different places.

Assays:
[1] = tested on: C. albicans MY1055; experiment: In vitro MIC, broth microdilution CLSI M27-A3; format: cell-based; conditions: Candida albicans, 50% inhibition of fungal growth at 24 h
Experimental: A disseminated Candida infection was induced in C′5-deficient DBA/2N mice (Taconic Farms, Germantown, NY), weighing on average 20 g, by i.v. inoculation with C. albicans MY1055 (Merck Culture Collection). C. albicans MY1055 was cultured on Sabouraud dextrose agar (SDA; BBL, Cockeysville, MD) plates at 35°C for 24 h. Yeast cells were washed from the surface of agar plates into sterile saline, and the cell concentrations were quantitated by using a hemocytometer. Viable cell counts were confirmed by a serial 10-fold dilution of the cell suspension and plating on SDA plates. Plates were incubated for 24 to 48 h at 35°C, whereupon the numbers of CFU were determined. The in vitro activity of SCY-078 against the MY1055 isolate was evaluated using broth microdilution assays as described in CLSI M27-A3 ([39]).

[2] = In vitro metabolic stability in hepatic microsomes; format: in vitro ADME, mouse; conditions: for remaining at 0.5 h, 1 µM: read-out: % remaining after 30 min; for half-life at 1 μM / microsomal CLint at 1 μM: pooled liver microsomes
Experimental: The metabolic stability of SCY-078 was assessed after incubation with mouse, rat, dog, and human liver microsomes (Table 2) ([10]). […] The half-lives in rodent, dog, and human liver microsomes were ≥125, ≥29, and ≥42 min, respectively.
The metabolic stability of SCY-078 was evaluated with male and female mouse, male rat, male and female dog, and mixed-gender human liver microsomes (XenoTech, Lenexa, KS). SCY-078 (1 μM) was incubated with pooled liver microsomes (0.5 mg protein/ml) for 0, 5, 10, 20, and 30 min at 37°C in the presence of NADPH. Aliquots were taken at each sampling time point and extracted with 5 volumes of ice-cold acetonitrile containing the internal standard (d9-SCY-078, 125 ng/ml). Supernatants from the incubation mixtures were analyzed for the parent compound by LC-MS/MS according to the conditions described below. The metabolic competency of microsomal preparations was established using the control compounds 7-ethoxycoumarin, propranolol, and verapamil. The in vitro intrinsic clearance (CLint), the CLint scaled to the in vivo intrinsic clearance (CL′int), and the half-life were determined for SCY-078 incubated with microsomes from each species.

[3] = tested on: C. albicans; experiment: Fractionated delayed-dose treatment model of disseminated candidiasis
Experimental: The fractionated delayed treatment model was used to compare the efficacy of SCY-078 when administered as divided doses of either two half doses or four quarter doses, relative to the outcome of a single dose. The total doses were 12.5, 25, and 50 mg/kg delivered by bolus intraperitoneal injection. Divided doses were administered at either 0 and 48 h or at 0, 24, 48, and 72 h relative to the single dose. […] Caspofungin and fluconazole were not evaluated in this model.
In the fractionated delayed-dose treatment model, SCY-078 was administered as divided doses of either two half doses or four quarter doses relative to the single dose. The total doses were 12.5, 25, and 50 mg/kg administered as a suspension in a “fit-for-purpose” formulation. Divided doses were administered at either 0 or 48 h or at 0, 24, 48, and 72 h relative to the single dose for the half and quarter doses, respectively. Caspofungin and fluconazole were not evaluated in this model.

[4] = tested on: C. albicans MY1055; experiment: Immediate treatment murine model of disseminated candidiasis
[5] = as above; conditions: DBA/2N, mouse, plasma, po
[6] = in vivo; parameters: species or system Wistar Han rats; conditions: Wistar Han, rat; for half-life: t1/2
Experimental: The pharmacokinetics and bioavailability of SCY-078 were evaluated in uninfected mouse, rat, and dog after p.o. and i.v. administration. The in vivo phases of the PK studies were performed at either […] (Waltham, MA) or MPI Research (Mattawan, MI) after an Institutional Animal Care and Use Committee (IACUC) review. […] and MPI Research are Association for Assessment and Accreditation of Laboratory Animal Care International (AAALAC)-approved facilities. […] The peak concentration (Cmax), the time to maximum concentration (Tmax), the half-life, and the AUC were determined from composite mean plasma concentration-time data for rodents and individual plasma concentration-time data for dogs. All doses and plasma concentrations of SCY-078 are presented as free base. Male and female Wistar Han rats (n = 3/sex/group/time point) weighing 0.329 to 0.398 kg (males) or 0.187 to 0.244 kg (females) received a single 5-mg/kg dose of SCY-078 as an i.v. injection in the lateral tail administered over 5 min or an oral dose of 20 mg/kg as described above. Blood specimens were collected from four animals/time point/group using a sparse sampling strategy via the sublingual vein at time intervals to 72 h postdosing and processed as described above.

[7] = Study A, 6.25 mg/kg p.o. BID, day 7
[8] = Study A, 12.5 mg/kg p.o. BID, day 7
[9] = Study A, Efficacious: projected assuming linearity
[10] = Study B, 6.25 mg/kg p.o. BID, day 7
[11] = Study B, 12.5 mg/kg p.o. BID, day 7
[12] = Study B, Efficacious: projected assuming linearity
[13] = Study C, 6.25 mg/kg p.o. BID, day 7

## CC(C)[C@@H](C)[C@@]1(C)CC[C@]2(C)[C@H]3CC[C@@H]4[C@@]5(COC[C@@]4(C)[C@@H](OC[C@](C)(N)C(C)(C)C)[C@H](n4ncnc4-c4ccncc4)C5)C3=CC[C@@]2(C)[C@@H]1C(=O)O [SCY-078, (1S,4aR,6aS,7R,8R,10aR,10bR,12aR,14R,15R)-15-[[(2R)-2-amino-2,3,3-trimethylbutyl]oxy]-8-[(1R)-1,2-dimethylpropyl]-14-[5-(4-pyridinyl)-1H-1,2,4-triazol-1-yl]-1,6,6a,7,8,9,10,10a,10b,11,12,12a-dodecahydro-1,6a,8,10a-tetramethyl-4H-1,4a-propano-2H-phenanthro[1,2-c]pyran-7-carboxylic acid]
[1]
  MIC: 0.03 µg/mL (≈ 0.0411 µM)
[2]; female mouse liver microsomes
  remaining at 0.5 h, 1 µM: 88%
  half-life at 1 μM: > 2.25 h
  microsomal CLint at 1 μM: < 10 µL/min/mg
[2]; male mouse liver microsomes
  remaining at 0.5 h, 1 µM: 95%
  half-life at 1 μM: > 2.25 h
  microsomal CLint at 1 μM: < 10 µL/min/mg
[3]; 2 doses
  ED99: 9.83 mg/kg
[3]; 4 doses
  ED99: 6.93 mg/kg
[3]; divided, half doses (0 and 48 h)
  90% effective dose (ED90): 4.40 mg/kg
[3]; divided, quarter doses (0, 24, 48, 72 h)
  90% effective dose (ED90): 4.25 mg/kg
[3]; single dose
  90% effective dose (ED90): 5.02 mg/kg
  ED99: 13.43 mg/kg
[4]; [7]
  Kidney tissue burden: 2.78 log10 CFU/g of tissue
  Reduction from sham treatment: 3.69 log10 CFU/g of tissue
[4]; Study A, 6.25 mg/kg p.o. BID, day 7, five animals per group
  % animals sterilized: 40%
[4]; [8]
  Kidney tissue burden: 2.23 log10 CFU/g of tissue
  Reduction from sham treatment: 4.24 log10 CFU/g of tissue
[4]; Study A, 12.5 mg/kg p.o. BID, day 7, five animals per group
  % animals sterilized: 80%
[4]; [9]
  % animals sterilized: 60%
  Kidney tissue burden: 2.51 log10 CFU/g of tissue
  Reduction from sham treatment: 4 log10 CFU/g of tissue
[4]; [10]
  Kidney tissue burden: 3.52 log10 CFU/g of tissue
  Reduction from sham treatment: 3.35 log10 CFU/g of tissue
[4]; Study B, 6.25 mg/kg p.o. BID, day 7, five animals per group
  % animals sterilized: 0%
[4]; [11]
  Kidney tissue burden: 2.2 log10 CFU/g of tissue
  Reduction from sham treatment: 4.67 log10 CFU/g of tissue
[4]; Study B, 12.5 mg/kg p.o. BID, day 7, five animals per group
  % animals sterilized: 100%
[4]; [12]
  % animals sterilized: 50%
  Kidney tissue burden: 2.86 log10 CFU/g of tissue
  Reduction from sham treatment: 4.01 log10 CFU/g of tissue
[4]; [13]
  Kidney tissue burden: 2.61 log10 CFU/g of tissue
  Reduction from sham treatment: 4.35 log10 CFU/g of tissue
[4]; Study C, 6.25 mg/kg p.o. BID, day 7, five animals per group
  % animals sterilized: 60%
[4]; efficacy target, fraction bound 99.8% in mouse plasma
  Free-drug (f) AUC0–24: 0.0224 ± 0.0032 µg·h/mL
[4]; mean of immediate-treatment, delayed-single-dose and delayed-fractionated-dose models
  Mean therapeutic exposure (plasma AUC0–24) across all models: 14.3 µM·h
[5]; 6.25 mg/kg, Plasma AUC0–24, Study A, 6.25 mg/kg p.o. BID, after dose 13 day 7
  AUC(0-t): 6190 ng·h/mL and 8.48 µM·h
[5]; 6.25 mg/kg, Plasma AUC0–24, Study B, 6.25 mg/kg p.o. BID, after dose 13 day 7
  AUC(0-t): 3270 ng·h/mL and 4.48 µM·h
[5]; 6.25 mg/kg, Plasma AUC0–24, Study C, 6.25 mg/kg p.o. BID, after dose 13 day 7
  AUC(0-t): 11000 ng·h/mL and 15.1 µM·h
[5]; 12.5 mg/kg, Plasma AUC0–24, Study A, 12.5 mg/kg p.o. BID, after dose 13 day 7
  AUC(0-t): 19700 ng·h/mL and 27 µM·h
[5]; 12.5 mg/kg, Plasma AUC0–24, Study B, 12.5 mg/kg p.o. BID, after dose 13 day 7
  AUC(0-t): 16200 ng·h/mL and 22.2 µM·h
[5]; Plasma AUC0–24, Study A, Efficacious: projected efficacious exposure assuming linearity
  AUC(0-t): 12900 ng·h/mL and 17.7 µM·h
[5]; Plasma AUC0–24, Study B, Efficacious: projected efficacious exposure assuming linearity
  AUC(0-t): 9710 ng·h/mL and 13.3 µM·h
[6]; both sexes, iv, 5 mg/kg
  AUC(0-inf): 11700 ng·h/mL
  AUC(0-t): 10300 ng·h/mL
  Vd: 4.7 L/kg
  clearance: 7.33 mL/min/kg
  half-life: ~8.7 h
[6]; both sexes, po, 20 mg/kg
  AUC(0-inf): 20800 ng·h/mL
  AUC(0-t): 16400 ng·h/mL
  Cmax: 1010 ng/mL
  Tmax: 8 h
  half-life: ~9.1 h
[6]; both sexes, po, 20 mg/kg, Bioavailability
  bioavailability: ~45%
[6]; both, iv
  Dose normalized AUC0–∞ to a 1-mg/kg dose: ~2.4 µg·h/mL
[6]; both, iv, 5 mg/kg
  t1/2: 8.7 h
